These are literature values, as cited in patent US11826586B2, “Method for dyeing keratin material, comprising the use of an organic C1-C6-alkoxy-silane and an alkalising agent” (Henkel AG & Co. KGaA, priority 2019, dated 2023).

The conditions of the series: 25° C.

As to `O=[N+]([O-])c1cc([N+](=O)[O-])c2ccc(S(=O)(=O)O)cc2c1O` [Acid Yellow 9, 8-hydroxy-5,7-dinitro-2-naphthalenesulfonic acid], the solubility in water entry is recorded as “above 40 g/L”. Take `O=S(=O)(O)c1ccc(N=Nc2c(O)ccc3ccccc23)cc1` [Acid Orange 7, 4-[(2-hydroxy-1-naphthyl)azo]benzene sulphonate]: the solubility in water entry was “more than 7 g/L”. For `CCN(Cc1cccc(S(=O)(=O)O)c1)c1ccc(C(=C2C=CC(=[N+](CC)Cc3cccc(S(=O)(=O)O)c3)C=C2)c2ccccc2S(=O)(=O)[O-])cc1` [Acid Blue 9], the solubility in water entry is “more than 20 % by weight”. For `O=C(O)C1=NN(c2ccc(S(=O)(=O)O)cc2)C(=O)C1N=Nc1ccc(S(=O)(=O)O)cc1` (stereo not shown) [Acid Yellow 23, 4,5-dihydro-5-oxo-1-(4-sulfophenyl)-4-((4-sulfophenyl)azo)-1H-pyrazole-3-carboxylic acid], the “solubility in water (in words)” value was “highly soluble”.
